# Data reported in US20130142866A1, “COMPOSITIONS AND METHODS FOR IMPROVED ORGAN TRANSPLANT PRESERVATION AND ACCEPTANCE” (NOVALIQ GMBH, priority 2010, published 2013).
# “Also recorded” adds a separate entry of the source.
# Legend:
# [1] = Solubilisation of N-octanoyl dopamine by polysorbates; type: physicochemical; details: 0.5 wt.-% polysorbate 20 or polysorbate 80 solution, aqueous with cosolvent or surfactant or cyclodextrin; 0.5 wt.-% polysorbate 20 or polysorbate 80, individually; read-out: amount of N-octanoyl dopamine solubilised
# Excerpt: In one particular embodiment, the amount of amphiphilic excipient is at least about 0.05 wt.-%. According to a further embodiment, the amount is from about 0.1 wt.-% to about 30 wt.-%, or from about 0.5 wt.-% to about 20 wt.-%, respectively. […] However, if the composition is to be used as a concentrate to be added to a commercial solution for tissue and organ preservation, the concentrate itself may also comprise the amphiphilic excipient at a relatively high concentration, taking into account the dilution factor. In a further embodiment, the ratio of N-octanoyl dopamine to the amphiphilic excipient is selected in the range from about 5:1 to about 1:50.
# [2] = Compatibility with organ preservation solutions (UW, HTK); type: physicochemical; details: usual behaviour, leading to brownish-pink colour
# Description: Two samples of the formulation of example 4 having a N-octanoyl dopamine concentration of 11.16 mg/mL were individually mixed with either University of Wisconsin solution (Viaspan, or UW) or histidine-tryptophan-ketoglutarate (HTK) solution (Custodiol) at a volume ratio of 1:4 (1 part of the inventive composition plus 4 parts of the conventional solution).
# [3] = tested on: Human umbilical vein endothelial cells (HUVEC) stimulated with TNF-α; experiment: TNF-α-mediated inflammation in HUVEC (gene expression profiling, qPCR, Western blotting, NF-κB activation); type: cell-based
# Description: Human umbilical vein endothelial cells (HUVEC) were stimulated with TNF-α (tumour-necrosis-factor alpha) in the absence or presence of various concentrations of the N-octanoyl dopamine formulation. Affymetrix Gene Expression Profiling, quantitative PCR, Western-blotting and NF-κB activation were performed to assess the anti-inflammatory potential of the composition of the invention. As a comparator, a surfactant-free aqueous dispersion of N-octanoyl dopamine, which is not an embodiment of the invention, was also tested.
# freshly isolated T-cells = experiment: T-cell proliferation, anti-CD3/anti-CD28 activation, 3H-thymidine incorporation; type: cell-based
# Description: A cell-culture system was used in which freshly isolated T-cells were polyclonally activated by anti-CD3/anti-CD28 beads. The cells were allowed to proliferate for at least 10 days in the presence or absence of different dilutions of the composition of the invention. T-cell proliferation was assessed on day 3, 5, 7 and 10 by means of 3H-thymidine incorporation. In this model, T-cell proliferation is maximal at day 3 and gradually declines at day 10.
# The experiments were repeated, except that freshly isolated T-cells were stimulated with anti-CD3/antio-CD28 antibodies in the presence of the composition diluted to a concentration of 50 μM of N-octanoyl dopamine and various concentrations of ciclosporin A or tacrolimus. Similar concentrations of ciclosporin A or tacrolimus were also tested in the absence of the composition.
# Cardiomyocytes = experiment: Cold storage injury of cardiomyocytes (ATP, LDH release, contraction rate); type: cell-based, rats
# Description: Cardiomyocytes were freshly isolated from new born rats and cultured for 3 days. […] ATP levels and LDH release was measured after 8 hours of cold preservation and hereafter cardiomyocytes were re-warmed and the contraction rate per well and ATP regeneration were determined.
smiles,measurement,setting,value
"CCCCCCCC(=O)NCCc1ccc(O)c(O)c1 [N-octanoyl dopamine, N-octanoyl-4-(2-aminoethyl)benzene-1,2-diol]",solubility,[1],40 mM
same,oxidation of N-octanoyl dopamine when mixed with UW or HTK,[2],occurs very rapidly
same,HO-1 expression,[3],strongly upregulated
same,concentration at which HO-1 was significantly induced,[3],1 µM
same,concentration required for inhibition of VCAM-1 expression,[3],50 µM
same,T-cell proliferation,freshly isolated T-cells; 25 μM N-octanoyl dopamine,without effect
same,T-cell proliferation,freshly isolated T-cells; 50 μM N-octanoyl dopamine,inhibited T-cell proliferation at day 3; also recorded: only partly inhibited T-cell proliferation at day 3 but not thereafter
same,reduction of the amount of calcineurin inhibitor required for complete T-cell suppression,freshly isolated T-cells; 50 μM N-octanoyl dopamine,at least 1000 fold
same,T-cell proliferation,freshly isolated T-cells; 100 μM N-octanoyl dopamine,"inhibited at day 3, day 5 and partly at day 7"
same,NFκB and AP-1 in T-cells,freshly isolated T-cells; downstream of early T-cell receptor signalling events,inhibition
same,inhibition of T-cell proliferation after oxidation / without redox activity,"freshly isolated T-cells; oxidation of N-octanoyl dopamine, or compounds lacking redox activity",abrogated
NCCc1ccc(O)c(O)c1 [dopamine],LDH-release after cold storage,"Cardiomyocytes; 8 hours at 4° C., FIG. 2",inhibited
same,ATP level after cold storage,"Cardiomyocytes; 8 hours at 4° C., compared with untreated cells, FIG. 1",dose-dependent mitigation of ATP loss
same,regeneration of ATP after re-warming,"Cardiomyocytes; after 8 hours at 4° C., compared to untreated cells",much faster
same,contraction rate after re-warming,"Cardiomyocytes; after 8 hours at 4° C., treated cells",significantly improved rate
"C=CC[C@@H]1/C=C(\C)C[C@H](C)C[C@H](OC)[C@H]2O[C@@](O)(C(=O)C(=O)N3CCCC[C@H]3C(=O)O[C@H](/C(C)=C/[C@@H]3CC[C@@H](O)[C@H](OC)C3)[C@H](C)[C@@H](O)CC1=O)[C@H](C)C[C@@H]2OC [tacrolimus, reference compound]",concentration of maximal inhibition of T-cell proliferation,"freshly isolated T-cells; calcineurin inhibitor alone, absence of the composition",1 µM
same,ciclosporin A or tacrolimus concentration still giving complete inhibition of T-cell proliferation,freshly isolated T-cells; in the presence of 50 μM N-octanoyl dopamine,1 nM
